Experimental data taken from BindingDB's records for doi:10.1124/jpet.103.062836 (Bayer Healthcare, 2004).

Columns and labels:
Cannabinoid receptor 2 = Cannabinoid receptor 2 (Homo sapiens, UniProt P34972)
Cannabinoid receptor 1 = Cannabinoid receptor 1 (Rattus norvegicus, UniProt P20272)
Chain of Cannabinoid receptor 1 (P20272 whole entry): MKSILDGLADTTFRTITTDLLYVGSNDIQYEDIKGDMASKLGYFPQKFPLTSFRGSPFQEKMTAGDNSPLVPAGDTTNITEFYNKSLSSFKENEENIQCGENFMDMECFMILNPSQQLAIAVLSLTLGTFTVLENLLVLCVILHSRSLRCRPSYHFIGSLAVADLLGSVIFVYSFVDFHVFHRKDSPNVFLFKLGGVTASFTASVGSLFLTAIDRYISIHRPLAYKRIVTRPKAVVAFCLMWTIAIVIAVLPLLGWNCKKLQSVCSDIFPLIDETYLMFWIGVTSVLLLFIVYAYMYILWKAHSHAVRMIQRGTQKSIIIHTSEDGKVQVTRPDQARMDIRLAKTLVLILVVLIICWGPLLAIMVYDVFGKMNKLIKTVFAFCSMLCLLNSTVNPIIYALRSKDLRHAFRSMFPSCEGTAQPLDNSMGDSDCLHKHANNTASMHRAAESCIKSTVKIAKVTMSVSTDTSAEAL

Chain of Cannabinoid receptor 2 (P34972 whole entry): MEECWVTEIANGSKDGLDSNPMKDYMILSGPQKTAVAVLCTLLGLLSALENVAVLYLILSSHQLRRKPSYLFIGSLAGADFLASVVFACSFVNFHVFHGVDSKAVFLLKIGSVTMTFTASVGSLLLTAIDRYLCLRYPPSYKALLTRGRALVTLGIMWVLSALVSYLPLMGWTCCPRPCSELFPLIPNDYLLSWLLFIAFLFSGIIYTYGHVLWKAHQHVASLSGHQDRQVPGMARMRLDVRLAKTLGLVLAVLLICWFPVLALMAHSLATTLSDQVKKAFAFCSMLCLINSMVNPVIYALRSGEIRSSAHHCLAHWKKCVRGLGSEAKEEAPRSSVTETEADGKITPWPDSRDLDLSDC

## N#Cc1c(Oc2cccc(OS(=O)(=O)CCCC(F)(F)F)c2)cccc1C(F)(F)F
Cannabinoid receptor 2
  Ki: 45.5 nM
Cannabinoid receptor 1
  Ki: 55.4 nM
